Experiments:
[1] = system: guinea pig skin; assay: Continuous irritative test of guinea pig skin (Draize method); type: in vivo, guinea pig (Hartley series); details: 0.5% in ethanol/propylene glycol (7:3), 3 days straight, full marks 8 points
Protocol: Each left and right two spots (4 spots/head) of applying parts having a frame of 2 cm×2 cm were provided on the back of a shaved guinea pig (Hartley series, 7 weeks of age, female, N=10), and each 50 μL of an ethanol/propylene glycol (7:3) solution containing 0.5% of the respective acyl glucosamine derivatives shown in the following Table 1 was applied once a day on the respective frames.
A skin irritative score after application for 3 days straight was evaluated according to the following evaluation criteria (Draize method). The above irritative score was shown by the total points (full marks: 8 points) of erythema and edema.
Evaluation Criteria of Skin Irritative Score:
3: middle to strong erythema
4: very strong erythema to crust
1: very slight edema formation
2: slight edema formation
3: middle edema formation
4: strong edema formation

[2] = system: acne patients; assay: Acne-improvement evaluation; type: in vivo, human; details: essence with 0.05%, applied on face several times a day, one month
Protocol: Prepared was an essence for acne shown in the following composition example in which 0.05% of various acyl glucosamine derivatives shown in the following Table 6 was blended. An essence which was not blended with an acyl glucosamine derivative was prepared as a control.
Sixty acne patients were picked up as subjects to apply everyday the respective essences on the faces thereof several times a day, and the therapeutic effect against the acnes was visually evaluated a month later according to four degrees of the following evaluation criteria.
In the four degree evaluation described above, improvement (∘) or better effect (⊚) was regarded as “effective for treating acnes”, and the subjects showing a treating effect were shown by a numerical value (percentage).

[3] = Table 1, 50 μL once a day, total of erythema and edema

| Structure (SMILES) | Draize score ([1]; Table 2, by stereoisomer ratio) | Draize score [1, 3] | Evaluation X (worsened), number of subjects [2] | Evaluation Δ (no change), number of subjects [2] | Evaluation ⊚ (notably improved), number of subjects [2] | Evaluation ◯ (improved), number of subjects [2] |
| --- | --- | --- | --- | --- | --- | --- |
| CC(=O)OC[C@H]1OC(OC(C)=O)[C@H](NC(=O)/C=C(C)/C=C/C=C(C)/C=C/C2=C(C)CCCC2(C)C)[C@@H](OC(C)=O)[C@@H]1OC(C)=O (single isomer, unassigned) [1,3,4,6-tetra-O-acetyl-N-retinoyl-D-glucosamine (9-cis isome] [listing 1 of 2 here] | 0.0 points | – | – | – | – | – |
| CC(=O)OC[C@H]1OC(OC(C)=O)[C@H](NC(=O)/C=C(C)/C=C/C=C(C)/C=C/C2=C(C)CCCC2(C)C)[C@@H](OC(C)=O)[C@@H]1OC(C)=O (single isomer, unassigned) [1,3,4,6-tetra-O-acetyl-N-retinoyl-D-glucosamine (9-cis isome] [listing 2 of 2 here] | 0.0 points | – | – | – | – | – |
| CC(=O)OC[C@H]1OC(OC(C)=O)[C@H](NC(=O)/C=C(C)/C=C/C=C(C)/C=C/C2=C(C)CCCC2(C)C)[C@@H](OC(C)=O)[C@@H]1OC(C)=O (single isomer, unassigned) [1,3,4,6-tetra-O-acetyl-N-retinoyl-D-glucosamine (13-cis isom] | 0.0 points | – | – | – | – | – |
| CC(=O)OC[C@H]1OC(OC(C)=O)[C@H](NC(=O)/C=C(C)/C=C/C=C(C)/C=C/C2=C(C)CCCC2(C)C)[C@@H](OC(C)=O)[C@@H]1OC(C)=O (single isomer, unassigned) [1,3,4,6-tetra-O-acetyl-N-retinoyl-D-glucosamine (cis isomer/] | 0.0 points | – | – | – | – | – |
| CC(C=CC1=C(C)CCCC1(C)C)=CC=CC(C)=CC(=O)N[C@H]1C(O)O[C@H](CO)[C@@H](O)[C@@H]1O (single isomer, unassigned) [N-retinoyl-D-glucosamine (9-cis isomer/13-cis isomer/trans i] | – | 0.1 points | – | – | – | – |
| CC(C=CC1=C(C)CCCC1(C)C)=CC=CC(C)=CC(=O)N[C@H]1C(O)O[C@H](CO)[C@@H](O)[C@@H]1O (single isomer, unassigned) [N-retinoyl-D-glucosamine (9-cis isomer/trans isomer = 0.5/99.5), N-retinoyl-D-glucosamine] | 0.1 points | – | – | – | – | – |
| CC(C=CC1=C(C)CCCC1(C)C)=CC=CC(C)=CC(=O)N[C@H]1C(O)O[C@H](CO)[C@@H](O)[C@@H]1O (single isomer, unassigned) [N-retinoyl-D-glucosamine (13-cis isomer/trans isomer = 0.5/99.5), N-retinoyl-D-glucosamine] | 0.0 points | – | – | – | – | – |
| CC(C=CC1=C(C)CCCC1(C)C)=CC=CC(C)=CC(=O)N[C@H]1C(O)O[C@H](CO)[C@@H](O)[C@@H]1O (single isomer, unassigned) [N-retinoyl-D-glucosamine (cis isomer/trans isomer = 0/100), N-retinoyl-D-glucosamine] | 0.0 points | – | – | – | – | – |
| CC(=O)OC[C@H]1OC(OC(C)=O)[C@H](NC(=O)/C=C(C)/C=C/C=C(C)/C=C/C2=C(C)CCCC2(C)C)[C@@H](OC(C)=O)[C@@H]1OC(C)=O (stereo partly drawn) [1,3,4,6-tetra-O-acetyl-N-retinoyl-D-glucosamine] | – | 0.0 points | – | – | – | – |
| CC(C)CCCCCCCCCCCCCCC(=O)N[C@H]1C(O)O[C@H](CO)[C@@H](O)[C@@H]1O (stereo partly drawn) [N-isostearoyl-D-glucosamine] | – | 0.1 points | 0 | 2 | 0 | 3 |
| CCCCCCCCCCCC(=O)N[C@H]1C(O)O[C@H](CO)[C@@H](O)[C@@H]1O (stereo partly drawn) [N-lauroyl-D-glucosamine] | – | 0.1 points | 1 | 1 | 0 | 1 |
| CCCCC/C=C\C/C=C\CCCCCCCC(=O)N[C@H]1C(O)O[C@H](CO)[C@@H](O)[C@@H]1O (stereo partly drawn) [N-linoleoyl-D-glucosamine] | – | 0.3 points | 1 | 3 | 0 | 1 |
| CCCCCCCC/C=C\CCCCCCCC(=O)N[C@H]1C(O)O[C@H](CO)[C@@H](O)[C@@H]1O (stereo partly drawn) [N-oleoyl-D-glucosamine] | – | 0.2 points | 0 | 2 | 0 | 3 |
| CC1=C(/C=C/C(C)=C/C=C/C(C)=C/C(=O)O)C(C)(C)CCC1 [Retinoic acid, reference compound] | – | 8.0 points | – | – | – | – |
